Experimental data published in ChEMBL document CHEMBL1154227, “Guttiferones O and P, prenylated benzophenone MAPKAPK-2 inhibitors from Garcinia solomonensis” (J Nat Prod, 2009).

Molecular target: MAP kinase-activated protein kinase 2 (Homo sapiens, UniProt P49137)
Assay: Inhibition of GST-tagged MAPKAPK2 assessed as [33P] incorporation after 40 mins by scintillation proximity assay

Sequence of MAP kinase-activated protein kinase 2 (P49137 whole entry): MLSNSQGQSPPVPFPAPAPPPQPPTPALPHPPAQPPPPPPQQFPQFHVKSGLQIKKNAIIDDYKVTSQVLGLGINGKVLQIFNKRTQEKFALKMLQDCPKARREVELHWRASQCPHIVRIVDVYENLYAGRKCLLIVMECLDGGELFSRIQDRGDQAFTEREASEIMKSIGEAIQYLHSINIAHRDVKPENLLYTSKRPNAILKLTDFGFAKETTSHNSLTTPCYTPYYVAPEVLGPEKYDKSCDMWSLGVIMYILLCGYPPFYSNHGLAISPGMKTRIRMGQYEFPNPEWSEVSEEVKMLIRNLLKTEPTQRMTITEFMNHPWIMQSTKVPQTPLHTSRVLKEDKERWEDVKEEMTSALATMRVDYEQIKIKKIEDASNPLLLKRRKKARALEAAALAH

Row | IC50 [µM] | Structure (SMILES)
1 | 22 | CC(C)=CCC/C(C)=C/C[C@]12C[C@@H](CC=C(C)C)C(C)(C)[C@](C/C=C(\C)CCC=C(C)C)(C(=O)C(C(=O)c3ccc(O)c(O)c3)=C1O)C2=O [GUTTIFERONE O]
2 | 22 | CC(C)=CCC/C(C)=C/C[C@]12C[C@@H](CC=C(C)C)[C@](C)(CCC=C(C)C)[C@](CC=C(C)C)(C(=O)C(C(=O)c3ccc(O)c(O)c3)=C1O)C2=O [GUTTIFERONE P]
